Key:
PI3K beta = target: T1, PI3K beta (Homo sapiens, UniProt P42338); experiment: PI3K beta kinase assay (Kinase-Glo luminescence); assay type: biochemical
T1 construct: for the full-length p110-b subunit are generated and fused by overlapping PCR; p85(iSH2) fusion partner (see partner chain) (N); His tag (C); made in house; host or cells: baculovirus; Tn5 (Trichoplusia ni) or TiniPro insect cells
How it was run: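 Residual ATP after a 60 min room-temperature reaction is quantified by Kinase-Glo luminescence. Enzyme: 25 nM BV-949 (p85 iSH2–linker–full-length p110β); substrates 1 μM ATP, 10 μg/mL PI; buffer Tris pH 7.5, MgCl2, NaCl, CHAPS, DTT. Eight concentrations per compound, four-parameter logistic IC50.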

[1] = tested on: PKB Ser473 phosphorylation in Rat1-myr-HA-p110 beta cells; experiment: Reverse protein array assay, PKB Ser473 phosphorylation in Rat1-myr-p110 beta cells; assay type: cell-based; conditions: 0.5 h, pAkt Ser473, 30 minutes incubation, read-out: p-PKB IC50
How it was run: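 Rat1 cells expressing myristoylated HA-tagged p110 alpha, beta or delta were plated for at least 20 h, then exposed to 8-step serial compound dilutions (0.2% DMSO final) for 30 min at 37 °C. Lysates were spotted at four dilutions on protein microarrays, and relative fluorescence intensity of phospho-Ser473 PKB was calculated.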

[2] = tested on: S6 Ribosomal Protein phosphorylation Ser235/236 in TSC1 null mouse embryo fibroblast (MEF) cells; experiment: Reverse protein array assay, S6 Ribosomal Protein phosphorylation Ser235/236 in TSC1 null MEF cells; assay type: cell-based; conditions: 1 h, pS6 ribosomal protein Ser235/236, 60 minutes incubation, read-out: p-S6 IC50
How it was run: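 TSC1−/− MEFs, seeded and held ≥20 h at 37 °C/5% CO2, were exposed to 8-step serial compound dilutions (0.02% DMSO final; DMSO vehicle control) for 60 min at 37 °C. Cells were then lysed on ice for 10 min and lysates spotted onto reverse protein array chips.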

T1 sequence (P42338 with tags, fused parts or gaps limits assumed): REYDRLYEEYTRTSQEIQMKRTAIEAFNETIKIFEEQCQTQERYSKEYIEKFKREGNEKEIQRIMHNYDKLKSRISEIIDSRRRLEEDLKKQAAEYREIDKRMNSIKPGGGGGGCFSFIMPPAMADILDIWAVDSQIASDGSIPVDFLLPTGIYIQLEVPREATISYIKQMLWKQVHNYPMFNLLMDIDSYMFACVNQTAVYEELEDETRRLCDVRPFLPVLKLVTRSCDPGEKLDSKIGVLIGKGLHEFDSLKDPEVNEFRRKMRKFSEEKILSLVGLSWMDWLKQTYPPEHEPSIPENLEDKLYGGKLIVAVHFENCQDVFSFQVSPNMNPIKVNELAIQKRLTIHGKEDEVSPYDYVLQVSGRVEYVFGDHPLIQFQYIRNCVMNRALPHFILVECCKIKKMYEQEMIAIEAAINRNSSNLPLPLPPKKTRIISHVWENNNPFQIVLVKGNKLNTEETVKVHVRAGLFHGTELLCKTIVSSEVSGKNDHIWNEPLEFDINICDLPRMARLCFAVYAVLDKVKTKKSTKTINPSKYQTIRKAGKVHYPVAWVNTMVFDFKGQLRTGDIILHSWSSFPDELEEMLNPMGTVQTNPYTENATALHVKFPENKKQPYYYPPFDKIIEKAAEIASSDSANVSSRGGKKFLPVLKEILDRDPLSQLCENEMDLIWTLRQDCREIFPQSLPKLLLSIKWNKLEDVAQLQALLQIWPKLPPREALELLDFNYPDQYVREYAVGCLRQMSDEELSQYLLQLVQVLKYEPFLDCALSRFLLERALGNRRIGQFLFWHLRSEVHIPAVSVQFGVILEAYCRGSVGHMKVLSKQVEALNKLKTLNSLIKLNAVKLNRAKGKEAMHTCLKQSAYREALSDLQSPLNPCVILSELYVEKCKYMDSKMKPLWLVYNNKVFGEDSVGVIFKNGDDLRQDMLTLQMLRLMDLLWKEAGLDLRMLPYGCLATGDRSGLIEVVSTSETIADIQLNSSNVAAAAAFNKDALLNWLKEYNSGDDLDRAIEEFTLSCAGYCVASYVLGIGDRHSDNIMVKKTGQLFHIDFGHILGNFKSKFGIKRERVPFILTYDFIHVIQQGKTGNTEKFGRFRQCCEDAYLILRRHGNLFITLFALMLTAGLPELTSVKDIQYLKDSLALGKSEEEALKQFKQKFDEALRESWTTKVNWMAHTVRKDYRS

| IC50 (PI3K beta) | IC50 [1] | SMILES | IC50 [2] |
| --- | --- | --- | --- |
| 25 nM | 28 nM | Cc1nn(C)cc1-n1c(=O)n(C)c2cnc3ccc(-c4cncc(OCC5CC5)c4)cc3c21 [Example 61, 8-(5-Cyclopropylmethoxy-pyridin-3-yl)-1-(1,3-dimethyl-1H-pyrazol-4-yl)-3-methyl-1,3-dihydro-imidazo[4,5-c]quinolin-2-one] | 1 nM |
| 12 nM | 136 nM | CCn1cc(-n2c(=O)n(C)c3cnc4ccc(-c5cncc(C(C)(C)O)c5)cc4c32)c(C)n1 [Example 215.4, 1-(1-Ethyl-3-methyl-1H-pyrazol-4-yl)-8-[5-(1-hydroxy-1-methyl-ethyl)-pyridin-3-yl]-3-methyl-1,3-dihydro-imidazo[4,5-c]quinolin-2-one] | < 0.5 nM |
| 255 nM | 21 nM | CNC(=O)c1ccc(-c2ccc3ncc4c(c3c2)n(-c2cn(C)nc2C)c(=O)n4C)cn1 [Example 15.1, 5-[1-(1,3-Dimethyl-1H-pyrazol-4-yl)-3-methyl-2-oxo-2,3-dihydro-1H-imidazo[4,5-c]quinolin-8-yl]-pyridine-2-carboxylic acid methylamide] | 11 nM |
| 37 nM | 54 nM | CCOCc1cc(-c2ccc3ncc4c(c3c2)n(-c2cn(C)nc2C)c(=O)n4C)cnc1N [Example 166.1, 8-(6-Amino-5-ethoxymethyl-pyridin-3-yl)-1-(1,3-dimethyl-1H-pyrazol-4-yl)-3-methyl-1,3-dihydro-imidazo[4,5-c]quinolin-2-one] | 3 nM |
| 343 nM | 9 nM | CCOc1ncc(-c2ccc3ncc4c(c3c2)n(-c2cn(C)nc2C)c(=O)n4C)cn1 [Example 52, 1-(1,3-Dimethyl-1H-pyrazol-4-yl)-8-(2-ethoxy-pyrimidin-5-yl)-3-methyl-1,3-dihydro-imidazo[4,5-c]quinolin-2-one] | 48 nM |
| 225 nM | 19 nM | CCn1cc(-n2c(=O)n(C)c3cnc4ccc(-c5ccc(N(C)C)nc5)cc4c32)c(C)n1 [Example 4.2, 8-(6-Dimethylamino-pyridin-3-yl)-1-(1-ethyl-3-methyl-1H-pyrazol-4-yl)-3-methyl-1,3-dihydro-imidazo[4,5-c]quinolin-2-one] | 7 nM |
| 18 nM | < 5 nM | CCNc1cc(-c2ccc3ncc4c(c3c2)n(-c2cn(C)nc2C)c(=O)n4C)cnc1CC [Example 161, 1-(1,3-Dimethyl-1H-pyrazol-4-yl)-8-(6-ethyl-5-ethylamino-pyridin-3-yl)-3-methyl-1,3-dihydro-imidazo[4,5-c]quinolin-2-one] | 2 nM |
| 21 nM | 38 nM | COc1cncc(-c2ccc3ncc4c(c3c2)n(-c2cn(C)nc2C)c(=O)n4C)c1 [Example 12, 1-(1,3-Dimethyl-1H-pyrazol-4-yl)-8-(5-methoxy-pyridin-3-yl)-3-methyl-1,3-dihydro-imidazo[4,5-c]quinolin-2-one] | 7 nM |
| 409 nM | 391 nM | CCOc1cc(-c2ccc3ncc4c(c3c2)n(-c2cn(C)nc2C)c(=O)n4C)ccn1 [Example 91, 1-(1,3-Dimethyl-1H-pyrazol-4-yl)-8-(2-ethoxy-pyridin-4-yl)-3-methyl-1,3-dihydro-imidazo[4,5-c]quinolin-2-one] | 36 nM |
| 66 nM | 35 nM | Cc1ccc(-c2ccc3ncc4c(c3c2)n(-c2cn(C)nc2C)c(=O)n4C)cn1 [Example 7.2, 1-(1,3-Dimethyl-1H-pyrazol-4-yl)-3-methyl-8-(6-methyl-pyridin-3-yl)-1,3-dihydro-imidazo[4,5-c]quinolin-2-one] | 13.5 nM |
| 8 nM | 16 nM | COc1ccc(-c2ccc3ncc4c(c3n2)n(-c2cc(C)nn2C)c(=O)n4C)cc1OC [Example 253, 8-(3,4-Dimethoxy-phenyl)-1-(2,5-dimethyl-2H-pyrazol-3-yl)-3-methyl-1,3-dihydro-1,3,5,9-tetraaza-cyclopenta[a]naphthalen-2-one] | < 5 nM |
| 167 nM | 63 nM | Cc1nn(C)cc1-n1c(=O)[nH]c2cnc3ccc(-c4cnc(N(C)C)nc4)cc3c21 [Example 207, 8-(2-Dimethylamino-pyrimidin-5-yl)-1-(1,3-dimethyl-1H-pyrazol-4-yl)-1,3-dihydro-imidazo[4,5-c]quinolin-2-one] | 22 nM |
| 190 nM | 11 nM | CNC(=O)c1ccc(-c2ccc3ncc4c(c3c2)n(-c2cn(C)nc2C)c(=O)n4C)cc1 [Example 43.1, 4-[1-(1,3-Dimethyl-1H-pyrazol-4-yl)-3-methyl-2-oxo-2,3-dihydro-1H-imidazo[4,5-c]quinolin-8-yl]-N-methyl-benzamide] | 3 nM |
| 51 nM | 43 nM | COCc1cncc(-c2ccc3ncc4c(c3c2)n(-c2cn(C)nc2Cl)c(=O)n4C)c1 [Example 54.2, 1-(3-Chloro-1-methyl-1H-pyrazol-4-yl)-8-(5-methoxymethyl-pyridin-3-yl)-3-methyl-1,3-dihydro-imidazo[4,5-c]quinolin-2-one] | 1 nM |
| 157 nM | 38 nM | COCCOc1ccc(-c2ccc3ncc4c(c3c2)n(-c2cn(C)nc2C)c(=O)n4C)cc1OC [Example 30.1, 1-(1,3-Dimethyl-1H-pyrazol-4-yl)-8-[3-methoxy-4-(2-methoxy-ethoxy)-phenyl]-3-methyl-1,3-dihydro-imidazo[4,5-c]quinolin-2-one] | 14 nM |
| 12 nM | 6 nM | CCOc1cc(-c2ccc3ncc4c(c3c2)n(-c2cn(C)nc2C)c(=O)n4C)cnc1C [Example 85.1, 1-(1,3-Dimethyl-1H-pyrazol-4-yl)-8-(5-ethoxy-6-methyl-pyridin-3-yl)-3-methyl-1,3-dihydro-imidazo[4,5-c]quinolin-2-one] | 1 nM |
| 377 nM | 38 nM | CCOc1ccc(-c2ccc3ncc4c(c3c2)n(-c2cn(CC(=O)N3CCC3)nc2C)c(=O)n4C)cn1 [Example 138, 1-[1-(2-Azetidin-1-yl-2-oxo-ethyl)-3-methyl-1H-pyrazol-4-yl]-8-(6-ethoxy-pyridin-3-yl)-3-methyl-1,3-dihydro-imidazo[4,5-c]quinolin-2-one] | 3 nM |
| 40 nM | 48 nM | Cc1nn(C(C)C)cc1-n1c(=O)n(C)c2cnc3ccc(-c4cncc(C(C)(C)O)c4)cc3c21 [Example 215.1, 8-[5-(1-Hydroxy-1-methyl-ethyl)-pyridin-3-yl]-1-(1-isopropyl-3-methyl-1H-pyrazol-4-yl)-3-methyl-1,3-dihydro-imidazo[4,5-c]quinolin-2-one] | 39 nM |
| 62 nM | 59 nM | CNC(=O)c1cc(-c2ccc3ncc4c(c3c2)n(-c2cn(C)nc2C)c(=O)n4C)cnc1N [Example 224.1, 2-Amino-5-[1-(1,3-dimethyl-1H-pyrazol-4-yl)-3-methyl-2-oxo-2,3-dihydro-1H-imidazo[4,5-c]quinolin-8-yl]-N-methyl-nicotinamide] | 3 nM |
| 39 nM | 55 nM | Cc1nn(C)cc1-n1c(=O)n(C)c2cnc3ccc(-c4cnc5c(c4)C(C)(C)C(=O)N5C)cc3c21 [Example 233, 1-(1,3-Dimethyl-1H-pyrazol-4-yl)-3-methyl-8-(1,3,3-trimethyl-2-oxo-2,3-dihydro-1H-pyrrolo[2,3-b]pyridin-5-yl)-1,3-dihydro-imidazo[4,5-c]quinolin-2-one] | 3 nM |
| 14 nM | 17 nM | CCNc1cc(-c2ccc3ncc4c(c3c2)n(-c2c(C)nn(C)c2C)c(=O)n4C)cnc1Cl [Example 153.1, 8-(6-Chloro-5-ethylamino-pyridin-3-yl)-3-methyl-1-(1,3,5-trimethyl-1H-pyrazol-4-yl)-1,3-dihydro-imidazo[4,5-c]quinolin-2-one] | 4 nM |
| 119 nM | 17 nM | CCn1cc(-n2c(=O)n(C)c3cnc4ccc(-c5cnc(OC)nc5OC)cc4c32)c(C)n1 [Example 234.1, 8-(2,4-Dimethoxy-pyrimidin-5-yl)-1-(1-ethyl-3-methyl-1H-pyrazol-4-yl)-3-methyl-1,3-dihydro-imidazo[4,5-c]quinolin-2-one] | 9 nM |
| 192 nM | 20 nM | CCOc1ccc(-c2ccc3ncc4c(c3c2)n(-c2cn(C)nc2C)c(=O)n4C)cn1 [Example 3.1, 1-(1,3-Dimethyl-1H-pyrazol-4-yl)-8-(6-ethoxy-pyridin-3-yl)-3-methyl-1,3-dihydro-imidazo[4,5-c]quinolin-2-one] | 40 nM |
| 17 nM | 266 nM | Cc1nn(CC(=O)N2CCC2)cc1-n1c(=O)n(C)c2cnc3ccc(-c4cncc(OC(C)C)c4)cc3c21 [Example 205, 1-[1-(2-Azetidin-1-yl-2-oxo-ethyl)-3-methyl-1H-pyrazol-4-yl]-8-(5-isopropoxy-pyridin-3-yl)-3-methyl-1,3-dihydro-imidazo[4,5-c]quinolin-2-one] | 37 nM |

Reference: patent US20140005163A1 (NOVARTIS AG, priority 2010, published 2014)
